Read-outs that look alike come from different tables or passages of the source.

Results on 12 compounds are retold here after patent US20060014193A1, “Nucleoside phosphoramidates and nucleoside phosphoramidases” (priority 2004, published 2006).

Assay [1] deals with T1, Human Hint1-DHFR (UniProt P0ABQ4+P49773).
T1 construct: made in house; host or cells: E. coli (following the procedure for the hinT plasmid)
The assay is described as follows: 31P NMR phosphoramidase assay of purified protein. Format: biochemical. The note with it: 10 mM substrate, pH 7.2, 22° C. As to the method:
(§1) Phosphoramidase activity in cell lysates was measured by the ^1H-decoupling mode of phosphorus-31 NMR spectroscopy (Varian VAC-300 spectrometer), which can clearly distinguish the substrate, AMP-NH2, and the product, adenosine 5′-monophosphate (AMP). NMR spectrometry is suitable for quantitation by integration of the area under the peak, which is proportional to the amount of nuclei present. The relative ratio of peak areas can be used to calculate the amount of turnover corrected based on a standard curve.
(§2) Cell lysates from E. coli Tuner(DE3)pLacI cells (Novagen) were obtained by treatment with lysozyme (1 mg/ml) and the DNA was precipitated by protamine sulfate followed by centrifugation to remove cell debris. The supernatant was dialyzed extensively against Buffer A (20 mM Tris (pH 7.0); 1 mM EDTA; 1 mM DTT, 0.01 mM PMSF) to remove cellular phosphates and nucleotides. Phosphate free cell lysates (0.75 mg total protein) were incubated with 5 mM AMP-NH2 in 0.5 ml reaction buffer (0.5 mM MgCl2, 20 mM HEPES (pH 7.2)) at 37° C. for intervals of 15 min, 30 min, and 12 h. The reactions were terminated by snap freezing in a dry ice/acetone slush bath and lyophilized for 5 h. The samples were then dissolved in NMR buffer (600 μL, 50 mM EDTA, 20 mM HEPES (pH 7.2), and 1 mM TMP (trimethylphosphate, internal standard)) and the insoluble portion was spun down by centrifugation at 12,500×g for 5 min. A ^31P NMR spectrum was then collected for the supernatant. For the low pH control experiment, 10 mM AMP-NH2 in reaction buffer (500 μL, pH 2.0) was incubated at 37° C. for 12 h and the 31p signal was detected under the same conditions.
(§3) Five recombinant purified proteins were tested with three commercial available compounds (Sigma): AMP-NH2, adenosine 5′-monophosphomorpholidate (AMP-Mor), and guanosine 5′-monophosphomorpholidate (GMP-Mor) (FIG. 1). The compounds (10 mM) were incubated with proteins (2.5-10 μg) in the reaction buffer (500 μL, 0.5 mM MgCl2, 20 mM HEPES (pH 7.2)) at 22° C. for intervals of 36 and 66 min. The reactions were quenched by adding 5 M NaOH (20 μL), followed by snap freezing in a dry ice/acetone slush bath, and lyophilized. The sample preparation for ^31P NMR measurement was as described above for the cell-lysate experiment except that the pH was adjusted by the addition of 12 μL 6 M HCl before NMR spectra were collected.

Assay [2] concerns the target T2, Rabbit HINT1 (Oryctolagus cuniculus, UniProt P80912).
T2 construct: made in house; host or cells: E. coli hinT deletion mutant
Kind of assay: 31P NMR phosphoramidase assay of purified protein. The conditions noted are these: for Specific activity: 10 mM substrate, pH 7.2, 22° C. Format: biochemical. As to the method:
as §1, §2, §3

The target in assay [3] is T3, hHINT1 (Homo sapiens, UniProt P49773). The assay is described as follows: 31P NMR phosphoramidase assay of purified protein. Format: biochemical. The conditions noted are these: for Specific activity: 10 mM substrate, pH 7.2, 22° C. The procedure:
as §1, §2, §3

For assay [4], the target named is T4, E. coli hinT (Escherichia coli, UniProt P0ACE7).
T4 sequence (P0ACE7 1-119): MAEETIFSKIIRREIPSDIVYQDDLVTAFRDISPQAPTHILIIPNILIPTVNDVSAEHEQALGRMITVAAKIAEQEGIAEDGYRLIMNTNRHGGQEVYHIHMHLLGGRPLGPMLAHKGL
The assay is described as follows: 31P NMR phosphoramidase assay of purified protein. Format: biochemical. The conditions noted are these: for Specific activity: 10 mM substrate, pH 7.2, 22° C. As to the method: as §1, §2, §3

Assay [5] has as its target T5, E. coli hinT-DHFR (Escherichia coli, UniProt P0ABQ4+P0ACE7).
T5 construct: made in house; host or cells: E. coli Tuner(DE3)pLacI
The assay is described as follows: 31P NMR phosphoramidase assay of purified protein. The conditions noted are these: 10 mM substrate, pH 7.2, 22° C. Format: biochemical. As to the method:
as §1, §2, §3

The target in assay [6] is T3, hHINT1. The assay is described as follows: Catalytic activity (velocity) of cloned, purified phosphoramidase with AMPNH2. Format: biochemical. The source says: The enzyme responsible for hydrolysis of AZT amino acid phosphoramidates was cloned and characterized. After construction of a cDNA library from peripheral blood mononuclear cells (PBMCs) in T7Select10-3b phage, the phage display technique was employed to isolate the enzyme by affinity chromatography. After three rounds of phage selection and ampilification with an affinity column constructed from the L-tryptophan carbamate, DNA from ten selected plaques was amplified by PCR and sequenced. […] Hint1 is a member of the HIT protein superfamily, which consists of a recently identified adenosine 5′-monophosphoramide hydrolases from rabbit and yeast.
Velocity of the enzymes was determined at pH 7.2 at room temperature in the presence of 10 mM AMPNH2.

Assay [7] deals with T3, hHINT1. The assay is described as follows: Phosphoramidase fluorescence assay. Format: biochemical. The conditions noted are these: for Kcat / Km: Table 5. The procedure: (§4) The fluorescence of tryptophan (ex, 280 nm, em 360 nm) can be quenched when covalently attached to a nucleoside monophosphate, and nucleoside phosphoramidates of D- and L-tryptophan and tryptamine are excellent fluorescent substrates for hHINT1. Typically, after measurement of initial substrate fluorescence, hHINT1 was added to the reaction solution (HEPES buffer, pH 7.2, 25° C.) and the change in fluorescence over 2 min was determined by converting the slope into μM of substrate hydrolyzed per μg of enzyme per min with a standard curve. […] Based on the generation of chimeric polypeptides between the hHINTI and the hinT of E. coli, the preference for D enantiomers by the human HINT1 polypeptide is likely conferred by the C-terminus amino acids (e.g., the C-terminus 5, 6, 5 7, 8, 9, 10, or 11 amino acids) of the hHINT1 enzyme. […] In addition, both D-tryptophan phosphoramidates of cytosine and uridine were substrates. Initial rates were determined 10 during the first 10-20% of the reaction for variable substrate concentrations. The Michaelis-Menten constants, kcat and Km, for selected nucleoside phosphosphoramidates have been determined. (Table 4). As observed in the initial screening assay, for phosphoramidates containing L-tryptophan, hHINT1 has a 7-fold greater preference for AMP phosphoramidates of L-tryptophan than GMP.

Assay [8] deals with T4, E. coli hinT. The assay is described as follows: Phosphoramidase fluorescence assay. Format: biochemical. The conditions noted are these: Table 5.
Text: as §4, with “hHINT1.” for “hHINT1. Typically, after measurement of initial substrate fluorescence, hHINT1 was added to the reaction solution (HEPES buffer, pH 7.2, 25° C.) and the change in fluorescence over 2 min was determined by converting the slope into μM of substrate hydrolyzed per μg of enzyme per min with a standard curve.”, “(Table 4).” left out
In addition, the Michaelis-Menten constants, kcat and Km, for selected nucleoside phosphosphoramidates were determined for both human Hint1 and E. coli hinT (Table 5).

Assay [9] concerns the target T3, hHINT1. The conditions noted are these: literature (J. Biol. Chem. 2004, 279, 18711; 2002, 277, 10852); cited from earlier work.
[10] abbreviates: FIG. 5 substrate preference screen.

On to `Nc1ncnc2c1ncn2[C@@H]1O[C@H](COP(=O)(O)N2CCOCC2)[C@@H](O)[C@H]1O` [AMP-Mor, adenosine 5′-monophosphomorpholidate], for which the Specific activity was 43.4 ± 4.0 nmol nmol^−1 min^−1 in assay [1]; 26.6 ± 0.6 nmol nmol^−1 min^−1 in assay [2]; 45.0 ± 0 nmol nmol^−1 min^−1 in assay [3]; 360 ± 1 nmol nmol^−1 min^−1 in assay [4]; 411 ± 4 nmol nmol^−1 min^−1 in assay [5].

For AZT tryptophan phosphoramidate, the “Hydrolysis by over-expressed, purified human Hint1” value in assay [6] was “to a lesser extent”.

Turning to `COC(=O)[C@@H](Cc1c[nH]c2ccccc12)NP(=O)(O)OC[C@H]1O[C@@H](n2cnc3c(=O)[nH]c(N)nc32)[C@H](O)[C@@H]1O` [GMP-D-TrpCOOMe], in [7], the Kcat was 0.29 ± 0.02 s⁻¹ and the Km is 3.27 ± 0.58 µM. In [8], the Kcat amounted to 1.75 ± 0.05 s⁻¹ and the Km came out at 21.3 ± 1.21 µM.

In the case of `Cc1cn([C@H]2C[C@H](O)[C@@H](COP(=O)(O)NCCc3c[nH]c4ccccc34)O2)c(=O)[nH]c1=O` [TMP-Tryptamine], in assay [7], the Kcat turned out to be 0.044 ± 0.01 s⁻¹ and the Michaelis-Menten constant (Km) worked out at 26.1 ± 2.78 µM. For the same compound, in assay [8], the Kcat was found to be 0.014 ± 0.001 s⁻¹ and the Km stood at 35.9 ± 2.27 µM.

Regarding `Nc1nc2c(ncn2[C@@H]2O[C@H](COP(=O)(O)NCCc3c[nH]c4ccccc34)[C@@H](O)[C@H]2O)c(=O)[nH]1` [GMP-Tryptamine], the results for the Kcat in [7] and in assay [8] were 2.09 ± 0.16 s⁻¹ and 3.45 ± 0.3 s⁻¹, respectively. Also, the Km stood at 0.243 ± 0.03 µM in [7] and 5.34 ± 0.69 µM in [8].

As to `O=c1[nH]cnc2c1ncn2[C@@H]1O[C@H](COP(=O)(O)NCCc2c[nH]c3ccccc23)[C@@H](O)[C@H]1O` [IMP-Tryptamine], in [7], the Kcat was 2.53 ± 0.09 s⁻¹ and the Km was determined as 0.71 ± 0.03 µM. In addition, in [8], the Kcat came to 3.89 ± 0.18 s⁻¹ and the Km came out at 13.7 ± 0.67 µM.

Turning to `Nc1nc2c(ncn2[C@@H]2O[C@H](COP(=O)(O)N3CCOCC3)[C@@H](O)[C@H]2O)c(=O)[nH]1` [GMP-Mor, guanosine 5′-monophosphomorpholidate], the Specific activity is listed as 87.2 ± 11.8 nmol nmol^−1 min^−1 in [1]; 48.6 ± 0.4 nmol nmol^−1 min^−1 in [2]; 78.7 ± 1.3 nmol nmol^−1 min^−1 in assay [3]; 669 ± 1 nmol nmol^−1 min^−1 in assay [4]; 675 ± 17 nmol nmol^−1 min^−1 in [5]. Further, the “Preference for GMP-Mor over AMP-Mor” value in [2], in [3] and in assay [4] was 2 fold each time.

As for `Nc1ncnc2c1ncn2[C@@H]1O[C@H](COP(=O)(O)NCCc2c[nH]c3ccccc23)[C@@H](O)[C@H]1O` [AMP-Tryptamine], in assay [7], the Kcat stood at 2.05 ± 0.27 s⁻¹ and the Km is 0.25 ± 0.05 µM. In addition, in assay [8], the Kcat is 4.07 ± 0.11 s⁻¹ and the Km was 5.03 ± 0.21 µM.

With `Nc1nc2c(ncn2C2OC(COP(=O)(O)NC(Cc3c[nH]c4ccccc34)C(=O)O)C(O)C2O)c(=O)[nH]1` [GMP D-tryptophan phosphoramidate, guanosine monophosphate (GMP) D-tryptophan phosphoramidate], in assay [7] (setting [10]), the “Activity relative to 7-benzyl guanosine monophosphate (7-Bn GMP)” value was “approximately 7 fold” and the “Activity relative to GMP L-tryptophan” value is “nearly identical”.

Take `Nc1ncnc2c1ncn2[C@@H]1O[C@H](COP(=O)(O)NCCCC[C@H](N)C(=O)O)[C@@H](O)[C@H]1O` [AMP-lysine]: in assay [9], the Kcat was 0.234 ± 0.011 s⁻¹ and the Km was 0.472 ± 0.057 µM.

`Nc1ncnc2c1ncn2[C@@H]1O[C@H](COP(=O)(O)NCCc2c[nH]c3ccccc23)[C@@H](O)[C@@H]1O` [Ara-AMP-Tryptamine]: in assay [7], the Kcat came out at 0.85 ± 0.1 s⁻¹ and the Km is 0.79 ± 0.11 µM. In addition, in assay [8], the Kcat was found to be 0.95 ± 0.17 s⁻¹ and the Km stood at 34.6 ± 5.64 µM.

As to `O=c1ccn([C@@H]2O[C@H](COP(=O)(O)NCCc3c[nH]c4ccccc34)[C@@H](O)[C@H]2O)c(=O)[nH]1` [UMP-Tryptamine], in assay [7], the Kcat was found to be 1.85 ± 0.29 s⁻¹ and the Michaelis constant (Km) is 1.42 ± 0.25 µM. In assay [8], the Kcat worked out at 1.63 ± 0.22 s⁻¹ and the Km came out at 25.1 ± 3.56 µM.

For orientation: Km means the concentration of substrate that gives half-maximal velocity.
